# Test results: US9650395B2, “Antibacterial compounds and methods for use” (PTC Therapeutics, Inc., priority 2011, dated 2017)
# Read-outs that look alike come from different tables or passages of the source.
# How the values were obtained:
# [1] = system: quinolone resistant E. coli LZ3111; assay: Antibacterial activity, MIC, quinolone resistant E. coli LZ3111; type: cell-based, Escherichia coli; conditions: Escherichia coli, read-out: MIC, LZ3111
# Source text: The antibacterial activity from a microbroth dilution method may be presented as the minimum inhibitory concentration (MIC in […]). The MIC value is the lowest concentration of a drug which prevents macroscopically visible bacterial growth under test conditions.
# Mutations in these regions are known to confer a high level resistance to the quinolone class of antibiotics.
# [2] = system: control Gram-negative E. coli 25922 strain; assay: Antibacterial activity, microbroth dilution MIC, E. coli 25922; type: cell-based, Escherichia coli; conditions: Escherichia coli, read-out: MIC, 25922
# [3] = system: Gram-positive Staphylococcus aureus (S. aureus) 29213; assay: Antibacterial activity, microbroth dilution MIC, S. aureus 29213; type: cell-based; conditions: Staphylococcus aureus, read-out: MIC, 29213
# [4] = system: super sensitive Gram-negative Escherichia coli (E. coli) BAS849; assay: Antibacterial activity, microbroth dilution MIC, E. coli BAS849; type: cell-based; conditions: Escherichia coli, read-out: MIC, BAS849
# [5] = E. coli 25922, microbroth dilution
# [6] = S. aureus 29213, microbroth dilution
# [7] = E. coli BAS849, microbroth dilution
Compound,MIC [1] [µg/mL],"MIC [2, 5] [µg/mL]","MIC [3, 6] [µg/mL]","MIC [4, 7] [µg/mL]",MIC [2] [µg/mL],MIC [3] [µg/mL],MIC [4] [µg/mL]
"CCc1cc(C(=O)O)c(=O)[nH]c1-c1ccc(N2C[C@H]3CCC[C@@H](N(C)C)[C@H]3C2)cc1.Cl [Cpd 193, 6-{4-[(3aR,4R,7aS)-4-(dimethylamino)octahydro-2H-isoindol-2-yl]phenyl}-5-ethyl-2-oxo-1,2-dihydropyridine-3-carboxylic acid hydrochloride]",12.5 to 150,12.5 to 150,12.5 to 150,1 to 3.5,–,–,–
"CCc1c(-c2c(OC)cc(OC)cc2OC)[nH]c(=O)c(C(=O)O)c1O [Cpd 41, 5-ethyl-4-hydroxy-2-oxo-6-(2,4,6-trimethoxyphenyl)-1,2-dihydropyridine-3-carboxylic acid]",12.5 to 150,12.5 to 150,12.5 to 150,12.5 to 150,–,–,–
"CCc1cc(C(=O)O)c(=O)[nH]c1-c1ccc(N2CCCC2)cc1OC [Cpd 50, 5-ethyl-6-[2-methoxy-4-(pyrrolidin-1-yl)phenyl]-2-oxo-1,2-dihydropyridine-3-carboxylic acid]",12.5 to 150,12.5 to 150,12.5 to 150,12.5 to 150,–,–,–
"CCc1c(-c2ccc(N3CCC(CN(C)Cc4ccccc4)C3)cc2)[nH]c(=O)c(C(=O)O)c1O (stereo not drawn) [Cpd 255, 6-[4-(3-{[benzyl(methyl)amino]methyl}pyrrolidin-1-yl)phenyl]-5-ethyl-4-hydroxy-2-oxo-1,2-dihydropyridine-3-carboxylic acid]",12.5 to 150,12.5 to 150,3.5 to 12.5,3.5 to 12.5,–,–,–
"CCc1cc(C(=O)O)c(=O)[nH]c1-c1ccc(N2CC(n3nnc(C)n3)C2)cc1 [Cpd 168, 5-ethyl-6-{4-[3-(5-methyl-2H-tetrazol-2-yl)azetidin-1-yl]phenyl}-2-oxo-1,2-dihydropyridine-3-carboxylic acid]",12.5 to 150,12.5 to 150,12.5 to 150,< 1,–,–,–
"CCc1cc(C(=O)O)c(=O)[nH]c1-c1ccc(N2CC3NC3C2)cc1 (stereo not drawn) [Cpd 209, 6-[4-(3,6-diazabicyclo[3.1.0]hex-3-yl)phenyl]-5-ethyl-2-oxo-1,2-dihydropyridine-3-carboxylic acid]",12.5 to 150,–,–,3.5 to 12.5,12.5 to 150,12.5 to 150,–
"CCc1cc(C(=O)O)c(=O)[nH]c1-c1ccc(N2C[C@H]3C[C@H](N)[C@H]3C2)cc1.Cl [Cpd 212, 6-{4-[(1S,5R,6S)-6-amino-3-azabicyclo[3.2.0]hept-3-yl]phenyl}-5-ethyl-2-oxo-1,2-dihydropyridine-3-carboxylic acid hydrochloride]",12.5 to 150,3.5 to 12.5,12.5 to 150,< 1,–,–,–
"CCc1cc(C(=O)O)c(=O)[nH]c1-c1ccc(N2CCC(C)(CN)C2)cc1 (stereo not drawn) [Cpd 235, 6-{4-[3-(aminomethyl)-3-methylpyrrolidin-1-yl]phenyl}-5-ethyl-2-oxo-1,2-dihydropyridine-3-carboxylic acid]",12.5 to 150,12.5 to 150,12.5 to 150,1 to 3.5,–,–,–
"CCc1cc(C(=O)O)c(=O)[nH]c1-c1ccc(N2C[C@H]3CCC[C@@H](N(C)Cc4ccccc4)[C@H]3C2)cc1.O=C(O)C(F)(F)F [Cpd 194, 6-(4-{(3aR,4R,7aS)-4-[benzyl(methyl)amino]octahydro-2H-isoindol-2-yl}phenyl)-5-ethyl-2-oxo-1,2-dihydropyridine-3-carboxylic acid trifluoroacetate]",12.5 to 150,12.5 to 150,3.5 to 12.5,–,–,–,1 to 3.5
"CCc1c(-c2ccc(N3CCC(C)(O)C3)cc2)[nH]c(=O)c(C(=O)O)c1O (stereo not drawn) [Cpd 289, 5-ethyl-4-hydroxy-6-[4-(3-hydroxy-3-methylpyrrolidin-1-yl)phenyl]-2-oxo-1,2-dihydropyridine-3-carboxylic acid]",12.5 to 150,1 to 3.5,1 to 3.5,< 1,–,–,–
"CCc1cc(C(=O)O)c(=O)[nH]c1-c1ccc(N2C[C@H]3CC[C@@H](N(Cc4ccccc4)Cc4ccccc4)[C@H]3C2)cc1.O=C(O)C(F)(F)F [Cpd 201, 6-{4-[(3aR,4R,6aS)-4-(dibenzylamino)hexahydrocyclopenta[c]pyrrol-2(1H)-yl]phenyl}-5-ethyl-2-oxo-1,2-dihydropyridine-3-carboxylic acid trifluoroacetate]",12.5 to 150,12.5 to 150,12.5 to 150,–,–,–,3.5 to 12.5
"CCc1cc(C(=O)O)c(=O)[nH]c1-c1ccc(N2C[C@H]3CCC[C@@H](N(Cc4ccccc4)Cc4ccccc4)[C@H]3C2)cc1.O=C(O)C(F)(F)F [Cpd 196, 6-{4-[(3aR,4R,7aS)-4-(dibenzylamino)octahydro-2H-isoindol-2-yl]phenyl}-5-ethyl-2-oxo-1,2-dihydropyridine-3-carboxylic acid trifluoroacetate]",12.5 to 150,12.5 to 150,12.5 to 150,–,–,–,12.5 to 150
